Among the data in US20260258032A1, “TYROSINE KINASE 2 INHIBITORS AND USES THEREOF” (BIOGEN MA INC., priority 2022, published 2026) are IC50 values, retold here.

A word on the IC50: it is the concentration that inhibits the measured activity by half. High values mean weaker potency, low ones greater potency.

The target in one assay is T1, JH2 domain of human Tyk2 (Homo sapiens, UniProt P29597).
T1 construct: 10×His-tagged TYK2 JH2 domain (amino acid 575-876)
Briefly: JH2 biochemical assay (TR-FRET probe displacement). In kind it is binding. Summed up: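 A probe-displacement TR-FRET readout: compounds, tested in 3-fold, 10-point dilutions starting at […], compete with 2 nM tracer for 2 nM His-tagged JH2 (residues 575-876) detected by 0.1 nM Tb-anti-His over 60 min. IC50 comes from 4-parameter fits of normalized 520/495 nm ratios.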

For assay [1], the system named is Tyk2 kinase activity on STAT4. The assay is described as follows: pSTAT4 cell assay (MSD, NK92 cells). In kind it is cell-based. Conditions: compounds 1 hr. Summed up: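 Compound treatment of starved NK92 cells ran 1 hr before a 15-minute, 30 ng/mL IL2 pulse; lysates went to an MSD anti-STAT4 antibody assay, with curves fitted by 4-parameter logistic model.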
The mark [2] stands for this setting: TR-FRET probe displacement, JH2 domain of human Tyk2.

Where a name gives a salt, the structure may show the parent alone. A value given as a limit tells only on which side of the number the result lay.

T1 sequence (P29597 575-876): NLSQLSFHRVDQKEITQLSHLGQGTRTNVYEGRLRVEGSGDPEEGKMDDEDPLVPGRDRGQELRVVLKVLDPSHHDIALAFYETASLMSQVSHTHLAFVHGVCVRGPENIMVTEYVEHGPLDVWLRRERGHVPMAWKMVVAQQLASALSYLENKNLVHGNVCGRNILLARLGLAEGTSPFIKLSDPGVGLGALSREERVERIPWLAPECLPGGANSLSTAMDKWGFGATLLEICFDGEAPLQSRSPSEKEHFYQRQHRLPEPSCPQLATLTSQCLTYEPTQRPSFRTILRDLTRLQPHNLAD

Regarding `CC(=O)Nc1cc2c(cn1)C1(CC1)CN2c1cc(NC2CCOCC2)nc(C(C)(F)F)n1` [Example 155, N-(1′-(2-(1,1-difluoroethyl)-6-((tetrahydro-2H-pyran-4-yl)amino)pyrimidin-4-yl)-1′,2′-dihydrospiro[cyclopropane-1,3′-pyrrolo[3,2-c]pyridin]-6′-yl)acetamide], the results for the IC50 (at JH2 domain of human Tyk2 (JH2 biochemical assay); in assay [1] (stimulated 15 minutes)) were at most 10 nM and 10 to 100 nM, respectively.

`CC(=O)Nc1cc2c(cn1)C1(CC1)CN2c1cc(NC2CSC2)nc(C(C)(F)F)n1` [Example 166, N-(1′-(2-(1,1-difluoroethyl)-6-(thietan-3-ylamino)pyrimidin-4-yl)-1′,2′-dihydrospiro[cyclopropane-1,3′-pyrrolo[3,2-c]pyridin]-6′-yl)acetamide trifluoroacetate]: the figures for the IC50 (on JH2 domain of human Tyk2 (JH2 biochemical assay); in assay [1] (stimulated 15 minutes)) were at most 10 nM and 10 to 100 nM, respectively.

For `COCC(F)(F)c1cc(C)cc(N2CC3(CC3)c3cnc(NC(C)=O)cc32)n1` [Example 315, N-(1′-(6-(1,1-difluoro-2-methoxyethyl)-4-methylpyridin-2-yl)-1′,2′-dihydrospiro[cyclopropane-1,3′-pyrrolo[3,2-c]pyridin]-6′-yl)acetamide trifluoroacetate], the IC50 on JH2 domain of human Tyk2 (JH2 biochemical assay) is 10 to 100 nM; in assay [1] (stimulated 15 minutes), at least 1000 nM.

Turning to `CC(=O)Nc1cc2c(cn1)C1(CC1)CN2c1cc(C)cc(N2CCC(C)(O)C2)n1` (stereo not drawn) [Example 405, N-(1′-(6-(3-hydroxy-3-methylpyrrolidin-1-yl)-4-methylpyridin-2-yl)-1′,2′-dihydrospiro[cyclopropane-1,3′-pyrrolo[3,2-c]pyridin]-6′-yl)acetamide trifluoroacetate], the half-maximal inhibitory concentration (IC50) on JH2 domain of human Tyk2 (setting [2]) was 100 to 1000 nM; in assay [1] (then stimulated 15 minutes), at least 1000 nM.

Consider `COCCN(C)c1cc(N2CC3(CC3)c3cnc(NC(C)=O)cc32)nc(C(C)(F)F)n1` [Example 50, N-(1′-(2-(1,1-difluoroethyl)-6-((2-methoxyethyl)(methyl)amino)pyrimidin-4-yl)-1′,2′-dihydrospiro[cyclopropane-1,3′-pyrrolo[3,2-c]pyridin]-6′-yl)acetamide], for which the results for the IC50 (at JH2 domain of human Tyk2 (JH2 biochemical assay); in assay [1] (stimulated 15 minutes)) were at most 10 nM and 100 to 1000 nM, respectively.

As for `COCCOc1ccnc(N2CC3(CC3)c3cnc(NC(C)=O)cc32)n1` [Example 99, N-(1′-(4-(2-methoxyethoxy)pyrimidin-2-yl)-1′,2′-dihydrospiro[cyclopropane-1,3′-pyrrolo[3,2-c]pyridin]-6′-yl)acetamide], the values for the IC50 (on JH2 domain of human Tyk2 (JH2 biochemical assay); in assay [1] (stimulated 15 minutes)) were 10 to 100 nM and at least 1000 nM, respectively.

Regarding `CC(=O)Nc1cc2c(cn1)C1(CC1)CN2c1cc(C)nc(C(F)(F)CO)n1` [Example 289, N-(1′-(2-(1,1-difluoro-2-hydroxyethyl)-6-methylpyrimidin-4-yl)-1′,2′-dihydrospiro[cyclopropane-1,3′-pyrrolo[3,2-c]pyridin]-6′-yl)acetamide], the IC50 on JH2 domain of human Tyk2 (JH2 biochemical assay) is at most 10 nM; in assay [1] (stimulated 15 minutes) it was 10 to 100 nM.

For the compound `CC(=O)Nc1cc2c(cn1)C1(CC1)CN2c1cc(OC2(C#N)CC2)nc(C(C)(F)F)n1` [Example 144, N-(1′-(6-(1-cyanocyclopropoxy)-2-(1,1-difluoroethyl)pyrimidin-4-yl)-1′,2′-dihydrospiro[cyclopropane-1,3′-pyrrolo[3,2-c]pyridin]-6′-yl)acetamide trifluoroacetate], the IC50 at JH2 domain of human Tyk2 (JH2 biochemical assay) is 10 to 100 nM; in assay [1] (stimulated 15 minutes), at least 1000 nM.

Turning to `COc1ccc(-c2cc(N3CC4(CC4)c4cnc(NC(C)=O)cc43)nc(C(C)(F)F)n2)cn1` [Example 243, N-(1′-(2-(1,1-difluoroethyl)-6-(6-methoxypyridin-3-yl)pyrimidin-4-yl)-1′,2′-dihydrospiro[cyclopropane-1,3′-pyrrolo[3,2-c]pyridin]-6′-yl)acetamide trifluoroacetate], the IC50 on JH2 domain of human Tyk2 (JH2 biochemical assay) is at most 10 nM; in assay [1] (stimulated 15 minutes), 10 to 100 nM.

As to `CC(=O)Nc1cc2c(cn1)C1(CC1)CN2c1cc(C)nc(N2CCN(C)CC2)n1` [Example 227, N-(1′-(6-methyl-2-(4-methylpiperazin-1-yl)pyrimidin-4-yl)-1′,2′-dihydrospiro[cyclopropane-1,3′-pyrrolo[3,2-c]pyridin]-6′-yl)acetamide], the IC50 is 100 to 1000 nM on JH2 domain of human Tyk2 (JH2 biochemical assay) and at least 1000 nM in assay [1] (stimulated 15 minutes).

As to `COc1cc(N2CCc3cnc(NC(C)=O)cc32)nc(C(C)(F)F)n1` [Example 34, N-(1-(2-(1,1-difluoroethyl)-6-methoxypyrimidin-4-yl)-2,3-dihydro-1H-pyrrolo[3,2-c]pyridin-6-yl)acetamide], the IC50 at JH2 domain of human Tyk2 (JH2 biochemical assay) was 10 to 100 nM; in assay [1] (stimulated 15 minutes) it was at least 1000 nM.

Regarding `COC1(COc2nc(C)cc(N3CC4(CC4)c4cnc(NC(C)=O)cc43)n2)CCC1` [Example 378, N-(1′-(2-((1-methoxycyclobutyl)methoxy)-6-methylpyrimidin-4-yl)-1′,2′-dihydrospiro[cyclopropane-1,3′-pyrrolo[3,2-c]pyridin]-6′-yl)acetamide], the IC50 at JH2 domain of human Tyk2 (setting [2]) was 100 to 1000 nM; in assay [1] (then stimulated 15 minutes) it was at least 1000 nM.

For the compound `CC(=O)Nc1cc2c(cn1)C1(CC1)CN2c1cc(C)cc(OCC(C)(F)F)n1` [Example 356, N-(1′-(6-(2,2-difluoropropoxy)-4-methylpyridin-2-yl)-1′,2′-dihydrospiro[cyclopropane-1,3′-pyrrolo[3,2-c]pyridin]-6′-yl)acetamide trifluoroacetate], the IC50 at JH2 domain of human Tyk2 (JH2 biochemical assay) is 10 to 100 nM; in assay [1] (stimulated 15 minutes), at least 1000 nM.

On to `CC(=O)Nc1cc2c(cn1)C1(CC1)CN2c1cc(C)nc(C2CCCOC2)n1` (stereo not drawn) [Example 70, N-(1′-(6-methyl-2-(tetrahydro-2H-pyran-3-yl)pyrimidin-4-yl)-1′,2′-dihydrospiro[cyclopropane-1,3′-pyrrolo[3,2-c]pyridin]-6′-yl)acetamide], for which the results for the IC50 (on JH2 domain of human Tyk2 (JH2 biochemical assay); in assay [1] (stimulated 15 minutes)) were at most 10 nM and 100 to 1000 nM, respectively.

Regarding `CC(=O)Nc1cc2c(cn1)C1(CC1)CN2c1cc(C)cc(OC2CCOC2)n1` (stereo not drawn) [Example 339, N-(1′-(4-methyl-6-((tetrahydrofuran-3-yl)oxy)pyridin-2-yl)-1′,2′-dihydrospiro[cyclopropane-1,3′-pyrrolo[3,2-c]pyridin]-6′-yl)acetamide trifluoroacetate], the figures for the IC50 (on JH2 domain of human Tyk2 (JH2 biochemical assay); in assay [1] (stimulated 15 minutes)) were 10 to 100 nM and at least 1000 nM, respectively.

With `CC(=O)Nc1cc2c(cn1)C1(CC1)CN2c1cc(C)cc(N2CC3CCN(C)C3C2)n1` (stereo not drawn) [Example 277, N-(1′-(4-methyl-6-(1-methylhexahydropyrrolo[3,4-b]pyrrol-5(1H)-yl)pyridin-2-yl)-1′,2′-dihydrospiro[cyclopropane-1,3′-pyrrolo[3,2-c]pyridin]-6′-yl)acetamide trifluoroacetate], the IC50 was 100 to 1000 nM on JH2 domain of human Tyk2 (JH2 biochemical assay) and at least 1000 nM in assay [1] (stimulated 15 minutes).

Turning to `CC(=O)Nc1cc2c(cn1)C1(CC1)CN2c1cc(C)cc(N2CCC3(CC2)COC3)n1` [Example 208, N-(1′-(4-methyl-6-(2-oxa-7-azaspiro[3.5]nonan-7-yl)pyridin-2-yl)-1′,2′-dihydrospiro[cyclopropane-1,3′-pyrrolo[3,2-c]pyridin]-6′-yl)acetamide], the results for the IC50 (on JH2 domain of human Tyk2 (JH2 biochemical assay); in assay [1] (stimulated 15 minutes)) were 100 to 1000 nM and at least 1000 nM, respectively.

In the case of `CC(=O)Nc1cc2c(cn1)C1(CC1)CN2c1cc([C@H]2C[C@H](C#N)C2)nc(C(C)(F)F)n1` [Example 75, N-(1′-(6-((1r,3r)-3-cyanocyclobutyl)-2-(1,1-difluoroethyl)pyrimidin-4-yl)-1′,2′-dihydrospiro[cyclopropane-1,3′-pyrrolo[3,2-c]pyridin]-6′-yl)acetamide or N-(1′-(6-((1s,3s)-3-cyanocyclobutyl)-2-(1,1-difluoroethyl)pyrimidin-4-yl)-1′,2′-dihydrospiro[cyclopropane-1,3′-pyrrolo[3,2-c]pyridin]-6′-yl)acetamide], the results for the IC50 (at JH2 domain of human Tyk2 (JH2 biochemical assay); in assay [1] (stimulated 15 minutes)) were at most 10 nM and 100 to 1000 nM, respectively.
